Assay results from ChEMBL document CHEMBL1201862, “PubChem BioAssay data set” (2004).
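Briefly, cells in 96-well plates were exposed to five compound concentrations for 48 h, and endpoints were estimated by linear interpolation. Abbreviation: GI50, concentration required for 50% inhibition of growth.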 Calls of active or inactive are those of the source. Rule as the data show it: active = GI50 up to about 1.1 µM and inactive = higher.

How the values were obtained:
Test in all cases: inhibition of tumour cell growth, NCI panel, 48 h
SW-620 = system: SW-620
786-0 = system: 786-0
HCT-116 = system: HCT-116
LOX IMVI = system: LOX IMVI
NCI-H226 = system: NCI-H226
A498 = system: A498
MCF7 = system: MCF7
SR = system: SR
HCT-15 = system: HCT-15
OVCAR-3 = system: OVCAR-3
SK-MEL-28 = system: SK-MEL-28
HCC 2998 = system: HCC 2998
OVCAR-8 = system: OVCAR-8
M14 = system: M14
RXF 393 = system: RXF 393
HT-29 = system: HT-29
SN12C = system: SN12C
TK-10 = system: TK-10

| Structure (SMILES) | GI50 (SW-620) | GI50 (786-0) | GI50 (HCT-116) | GI50 (LOX IMVI) | GI50 (NCI-H226) | GI50 (A498) | GI50 (MCF7) | GI50 (SR) | GI50 (HCT-15) [µM] | GI50 (OVCAR-3) | GI50 (SK-MEL-28) | GI50 (HCC 2998) | GI50 (OVCAR-8) | GI50 (M14) | GI50 (RXF 393) | GI50 (HT-29) | GI50 (SN12C) | GI50 (TK-10) |
| --- | --- | --- | --- | --- | --- | --- | --- | --- | --- | --- | --- | --- | --- | --- | --- | --- | --- | --- |
| CC(=O)N(CCc1ccccc1)C(C)(C#N)c1ccccc1 (stereo not drawn) | > 100 µM (inactive) | > 100 µM (inactive) | > 100 µM (inactive) | > 100 µM (inactive) | > 100 µM (inactive) | > 100 µM (inactive) | > 100 µM (inactive) | > 100 µM (inactive) | > 100 | > 100 µM (inactive) | > 100 µM (inactive) | > 100 µM (inactive) | > 100 µM (inactive) | > 100 µM (inactive) | > 100 µM (inactive) | > 100 µM (inactive) | > 100 µM (inactive) | > 100 µM (inactive) |
| O=C1CCCC2=C1CC1=C(CCCC1=O)N2c1ccc([N+](=O)[O-])cc1 | > 100 µM (inactive) | > 100 µM (inactive) |  | > 100 µM (inactive) | > 100 µM (inactive) | > 100 µM (inactive) | > 100 µM (inactive) | > 100 µM (inactive) | > 100 | > 100 µM (inactive) | > 100 µM (inactive) | > 100 µM (inactive) | > 100 µM (inactive) | > 100 µM (inactive) | > 100 µM (inactive) | > 100 µM (inactive) | > 100 µM (inactive) | > 100 µM (inactive) |
| CC(=O)O[C@H]1C#C/C=C\C#CC[C@@H]2C(=O)N(C(=O)OC(C)(C)C)[C@@H]12 | 48.8 µM (inactive) | 9.93 µM (inactive) | 17.4 µM (inactive) | 13.1 µM (inactive) | 24.3 µM (inactive) | 33.4 µM (inactive) | 2.34 µM (inactive) | 24 µM (inactive) | 13.6 | 41.1 µM (inactive) | 71.4 µM (inactive) | 19.5 µM (inactive) | 14.5 µM (inactive) | 28.3 µM (inactive) | 15.4 µM (inactive) | 36.1 µM (inactive) | 18.8 µM (inactive) | > 55.1 µM (inactive) |
| CC(=O)OC1CC2CC(=O)CC1N2C (stereo not drawn) | > 100 µM (inactive) | > 100 µM (inactive) | > 100 µM (inactive) | > 100 µM (inactive) | > 100 µM (inactive) | > 100 µM (inactive) | > 100 µM (inactive) | > 100 µM (inactive) | > 100 | > 100 µM (inactive) | > 100 µM (inactive) | > 100 µM (inactive) | > 100 µM (inactive) | > 100 µM (inactive) | > 100 µM (inactive) | > 100 µM (inactive) | > 100 µM (inactive) | > 100 µM (inactive) |
| COc1ccc2/c(=C/c3ccc(N(C)C)cc3)c3cc(-c4ccccc4)[n+](C)n3c2c1 | 0.15 µM (active) | 0.161 µM (active) | 0.17 µM (active) | 0.161 µM (active) | 0.265 µM (active) | 0.408 µM (active) | 0.126 µM (active) | 0.092 µM (active) | 1 | 0.0834 µM (active) | 0.164 µM (active) | 0.115 µM (active) | 0.0568 µM (active) | 0.139 µM (active) | 0.59 µM (active) | 0.104 µM (active) | 0.223 µM (active) | 0.239 µM (active) |
| O=C(Oc1cccnc1)c1cc2cc(CCl)ccc2oc1=O | 35.3 µM (inactive) | 18.5 µM (inactive) | 17.7 µM (inactive) | 21 µM (inactive) | 66.1 µM (inactive) | 48.5 µM (inactive) | 3.15 µM (inactive) | 24 µM (inactive) | 23.8 | 25.5 µM (inactive) | 32.4 µM (inactive) | 57.7 µM (inactive) | 33.5 µM (inactive) | 21.4 µM (inactive) | 16.4 µM (inactive) | 17.1 µM (inactive) | 21.6 µM (inactive) | 20.8 µM (inactive) |
| CC(C)=CCC[C@@H](C)C1=C(O)C(=O)C(C)=C(N)C1=O | 43.1 µM (inactive) | 33.4 µM (inactive) | 45.1 µM (inactive) | 15.7 µM (inactive) | 20.8 µM (inactive) | 39.8 µM (inactive) | 50.8 µM (inactive) | 16.7 µM (inactive) | 4.85 | 27.9 µM (inactive) | 34.8 µM (inactive) | 59.6 µM (inactive) | 17.9 µM (inactive) | 20.5 µM (inactive) | 32.9 µM (inactive) | 40.8 µM (inactive) | 35.5 µM (inactive) | 50.2 µM (inactive) |
| C[C@H](CCC(=O)NCC(=O)O)[C@H]1CC[C@H]2[C@@H]3[C@H](O)C[C@@H]4C[C@H](O)CC[C@]4(C)[C@H]3CC[C@]12C | > 100 µM (inactive) | > 100 µM (inactive) | > 100 µM (inactive) | > 100 µM (inactive) | > 100 µM (inactive) | > 100 µM (inactive) | > 100 µM (inactive) | > 100 µM (inactive) | > 100 | > 100 µM (inactive) | > 100 µM (inactive) | > 100 µM (inactive) | > 100 µM (inactive) | > 100 µM (inactive) | > 100 µM (inactive) | > 100 µM (inactive) | > 100 µM (inactive) | > 100 µM (inactive) |
